pIC50, pKi: −log10 of the molar value.
Columns and labels:
Adenosine receptor A2a [1] = target: Adenosine receptor A2a (Homo sapiens, UniProt P29274); assay: Binding affinity for human adenosine A2A receptor in CHO cells using [3H]CGS-21680; assay type: cell-based
Adenosine receptor A2a [2] = target: Adenosine receptor A2a (Rattus norvegicus, UniProt P30543); assay: Binding affinity for rat adenosine A2A receptor in rat brain homogenates using [3H]CGS-21680
Adenosine receptor A1 = target: T1, Adenosine receptor A1 (Rattus norvegicus, UniProt P25099); assay: Binding affinity for rat Adenosine A1 receptor in rat brain homogenates using [3H]N6-(R)-phenylisopropyladenosine
T1 sequence (P25099 whole entry): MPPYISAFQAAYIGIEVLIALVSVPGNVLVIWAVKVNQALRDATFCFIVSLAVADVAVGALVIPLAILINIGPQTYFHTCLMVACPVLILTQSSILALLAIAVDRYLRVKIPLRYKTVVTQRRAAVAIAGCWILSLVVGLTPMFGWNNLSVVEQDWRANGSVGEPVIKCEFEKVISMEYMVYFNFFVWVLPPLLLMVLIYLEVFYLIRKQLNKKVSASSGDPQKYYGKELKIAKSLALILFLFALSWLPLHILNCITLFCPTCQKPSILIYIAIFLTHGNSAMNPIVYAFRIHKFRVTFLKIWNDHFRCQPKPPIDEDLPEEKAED

Adenosine receptor A3 = target: T2, Adenosine receptor A3 (Homo sapiens, UniProt P0DMS8); assay: Inhibitory concentration against human Adenosine A3 receptor mediated inhibition of cyclic AMP in transfected CHO cells; assay type: functional, cell-based
T2 sequence (P0DMS8 whole entry): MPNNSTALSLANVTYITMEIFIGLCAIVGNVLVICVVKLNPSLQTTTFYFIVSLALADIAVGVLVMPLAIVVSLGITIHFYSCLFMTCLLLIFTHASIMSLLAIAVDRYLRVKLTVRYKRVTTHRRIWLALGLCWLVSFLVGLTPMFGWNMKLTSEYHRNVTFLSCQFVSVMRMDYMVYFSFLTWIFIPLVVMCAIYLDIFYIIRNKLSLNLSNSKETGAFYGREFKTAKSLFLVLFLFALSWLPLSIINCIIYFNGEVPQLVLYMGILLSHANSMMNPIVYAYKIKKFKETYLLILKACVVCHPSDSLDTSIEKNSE

[3] = target: Adenosine receptor A2a (Rattus norvegicus) (UniProt P30543); assay: Percent displacement of [3H]-CGS-21,680 from rat adenosine A2A receptor in rat brain homogenates at 1 uM
Sequence of Adenosine receptor A2a (Rattus norvegicus) (P30543 whole entry): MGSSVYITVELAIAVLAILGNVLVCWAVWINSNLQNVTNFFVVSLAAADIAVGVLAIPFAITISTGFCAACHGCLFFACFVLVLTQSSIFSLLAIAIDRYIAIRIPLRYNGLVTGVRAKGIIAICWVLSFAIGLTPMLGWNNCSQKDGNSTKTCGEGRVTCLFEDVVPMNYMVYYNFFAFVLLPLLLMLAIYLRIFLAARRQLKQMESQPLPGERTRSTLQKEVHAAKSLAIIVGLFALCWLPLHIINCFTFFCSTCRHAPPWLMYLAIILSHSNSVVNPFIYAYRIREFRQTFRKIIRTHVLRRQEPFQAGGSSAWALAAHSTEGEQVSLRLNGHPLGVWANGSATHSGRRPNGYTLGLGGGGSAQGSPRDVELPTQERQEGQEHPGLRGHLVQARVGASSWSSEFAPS

Sequence of Adenosine receptor A2a (Rattus norvegicus, UniProt P30543) (P30543 whole entry): as above
Sequence of Adenosine receptor A2a (Homo sapiens, UniProt P29274) (P29274 whole entry): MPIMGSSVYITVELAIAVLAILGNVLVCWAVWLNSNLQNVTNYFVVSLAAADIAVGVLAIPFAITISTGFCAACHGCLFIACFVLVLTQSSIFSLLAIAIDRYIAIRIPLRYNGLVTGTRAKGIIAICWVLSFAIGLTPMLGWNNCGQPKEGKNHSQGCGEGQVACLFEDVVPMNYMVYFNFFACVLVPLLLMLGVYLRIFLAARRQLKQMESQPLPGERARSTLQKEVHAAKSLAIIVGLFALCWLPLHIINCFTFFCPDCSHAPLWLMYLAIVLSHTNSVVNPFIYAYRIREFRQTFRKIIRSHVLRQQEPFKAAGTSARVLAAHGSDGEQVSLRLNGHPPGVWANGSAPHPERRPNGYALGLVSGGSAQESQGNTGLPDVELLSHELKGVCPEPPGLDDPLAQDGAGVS

| pIC50 (Adenosine receptor A3) | Displacement [3] | SMILES | pKi (Adenosine receptor A2a [1]) | pKi (Adenosine receptor A2a [2]) | pKi (Adenosine receptor A1) |
| --- | --- | --- | --- | --- | --- |
|  |  | CNC(=O)[C@H]1S[C@@H](n2cnc3c(NCc4cccc(I)c4)nc(Cl)nc32)[C@H](O)[C@@H]1O | 6.65 | 6.46 | 6.85 |
| 9.00 | < 10% | CNC(=O)[C@H]1S[C@@H](n2cnc3c(N)nc(Cl)nc32)[C@H](O)[C@@H]1O |  |  |  |

Reference: ChEMBL document CHEMBL1145992, “N6-substituted D-4'-thioadenosine-5'-methyluronamides: potent and selective agonists at the human A3 adenosine receptor” (J Med Chem, 2003)
